{"source": "paper PMC3769651", "about": "(Scientific Reports, 2013)", "molecular_target": "vchNADK (Vibrio cholerae, UniProt Q9KTP8, K2E/N76T)"}
{"smiles": "NC(=O)c1ccc[n+]([C@@H]2O[C@H](COP(=O)(O)OP(=O)(O)OC[C@H]3O[C@@H](n4cnc5c(N)ncnc54)[C@H](OP(=O)(O)O)[C@@H]3O)[C@@H](O)[C@H]2O)c1", "note": "[NADP^+]", "values": [{"measurement": "% residual activity at 0.20 mM", "result": 39, "unit": "%"}]}
